Test results taken from PubChem BioAssay (NCI).
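Cells were grown in 96-well plates and exposed to each compound for 48 hours at five concentrations; endpoints were interpolated linearly between bracketing concentrations, or set to the highest concentration if not reached. At the TGI there is no net growth.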

Tests used:
Test in all cases: NCI anticancer screen, dose series, 48 h
U251 CNS = system: U251 CNS
CCRF-CEM leukemia = system: CCRF-CEM leukemia
K-562 leukemia = system: K-562 leukemia
UO-31 renal = system: UO-31 renal
NCI-H23 lung = system: NCI-H23 lung
HCT-116 colon = system: HCT-116 colon
MOLT-4 leukemia = system: MOLT-4 leukemia
SF-539 CNS = system: SF-539 CNS
RXF 393 renal = system: RXF 393 renal
NCI-H226 lung = system: NCI-H226 lung
IGROV1 ovarian = system: IGROV1 ovarian
HS 578T breast = system: HS 578T breast
MALME-3M melanoma = system: MALME-3M melanoma
HCC-2998 colon = system: HCC-2998 colon
OVCAR-4 ovarian = system: OVCAR-4 ovarian
NCI-H522 lung = system: NCI-H522 lung
OVCAR-3 ovarian = system: OVCAR-3 ovarian
PC-3 prostate = system: PC-3 prostate
MDA-N = system: MDA-N

Structure (SMILES)	TGI (U251 CNS)	TGI (CCRF-CEM leukemia)	TGI (K-562 leukemia)	TGI (UO-31 renal)	TGI (NCI-H23 lung)	TGI (HCT-116 colon)	TGI (MOLT-4 leukemia)	TGI (SF-539 CNS)	TGI (RXF 393 renal)	TGI (NCI-H226 lung)	TGI (IGROV1 ovarian)	TGI (HS 578T breast)	TGI (MALME-3M melanoma)	TGI (HCC-2998 colon)	TGI (OVCAR-4 ovarian)	TGI (NCI-H522 lung)	TGI (OVCAR-3 ovarian)	TGI (PC-3 prostate)	TGI (MDA-N)
Cc1sc(N)c(S(=O)(=O)c2ccccc2)c1C	> 100 µM	> 100 µM	> 100 µM	> 100 µM	> 100 µM	> 100 µM	> 100 µM	71 µM	> 100 µM	> 100 µM	> 100 µM	> 100 µM	> 100 µM	> 100 µM	> 100 µM	> 100 µM	> 100 µM	> 100 µM	
COC(=O)c1ccccc1NC(=O)C(=O)CC(=O)CC(c1ccccc1)c1c(O)c2ccccc2oc1=O (configuration not stated)		> 100 µM		> 100 µM	> 100 µM	> 100 µM	> 100 µM	> 100 µM	> 100 µM		> 100 µM		> 100 µM	> 100 µM	> 100 µM	> 100 µM	> 100 µM		
CN(NC(=O)/C(=C\c1ccco1)NC(=O)c1ccccc1)c1cn[nH]c(=O)c1Cl	> 100 µM	62.4 µM	> 100 µM	> 100 µM	> 100 µM	> 100 µM	93.3 µM	62 µM	> 100 µM	> 100 µM	> 100 µM	> 100 µM	> 100 µM		> 100 µM	89.3 µM	> 100 µM	> 100 µM	
O=C1CC(c2ccc(Cl)cc2)C2(C(=O)NC(=O)NC2=O)C(c2ccc(Cl)cc2)C1 (configuration not stated)	> 75 µM	> 75 µM	> 75 µM	> 75 µM	> 75 µM	> 75 µM	41.3 µM	> 75 µM	52.2 µM	36.4 µM	51.3 µM		39.8 µM	> 75 µM	> 75 µM	40.6 µM	> 75 µM	> 75 µM	49 µM
CCCC(=O)Oc1ccc2c(C)cc(=O)oc2c1OC(=O)CCC	> 100 µM	> 100 µM	> 100 µM	> 100 µM	> 100 µM	> 100 µM	> 100 µM	> 100 µM		> 100 µM	> 100 µM	> 100 µM	> 100 µM		> 100 µM		> 100 µM	> 100 µM	> 100 µM
CC1(C)CCCOc2cccc(c2)OCCCC(C)(C)C1=O	> 100 µM	44.2 µM	> 100 µM	> 100 µM	> 100 µM	> 100 µM	37.1 µM	> 100 µM	48.5 µM	82.9 µM	> 100 µM	> 100 µM	70.3 µM		> 100 µM	67.3 µM	69.1 µM	> 100 µM	> 100 µM
C[C@@H]1OC(=O)C[C@H]2CC(=O)N(CCC3CN(S(=O)(=O)C(F)(F)F)c4ccccc43)C[C@@H]21 (some centres not stated)	> 100 µM	> 100 µM	> 100 µM	> 100 µM	> 100 µM	> 100 µM	> 100 µM		> 100 µM		> 100 µM	> 100 µM	> 100 µM	> 100 µM	> 100 µM	> 100 µM	> 100 µM	> 100 µM	
COc1ccc([C@]23CCN(S(=O)(=O)c4ccc(C)cc4)[C@H]2[C@H](CO)C2(CC3)OCC(C)(C)CO2)cc1OC	> 100 µM	> 100 µM	> 100 µM	> 100 µM	> 100 µM	> 100 µM	> 100 µM		> 100 µM	> 100 µM	> 100 µM		> 100 µM	> 100 µM	> 100 µM	> 100 µM	> 100 µM	> 100 µM	> 100 µM
CC(=O)c1sc(Nc2ccc(Cl)c(Cl)c2)nc1C	> 100 µM			> 100 µM	> 100 µM	> 100 µM	83.8 µM	> 100 µM	> 100 µM	> 100 µM	> 100 µM		> 100 µM	> 100 µM	> 100 µM		> 100 µM		> 100 µM
Cn1c2ccccc2c2nc3ccccc3c(Cl)c21	> 100 µM	> 100 µM	> 100 µM		> 100 µM	> 100 µM	> 100 µM	> 100 µM	> 100 µM	> 100 µM	> 100 µM	> 100 µM	> 100 µM		> 100 µM	> 100 µM	> 100 µM	> 100 µM	
O=[N+]([O-])C(=C(Nc1ccccc1)Nc1ccccc1)/C(Cl)=C(\Cl)Br	28.2 µM	6.44 µM	13.2 µM	21.7 µM	29.1 µM	20.1 µM	13.4 µM	46 µM		14.4 µM		> 100 µM	37.1 µM	35 µM	27.3 µM	8.72 µM	19.4 µM	30.7 µM	
COC(=O)c1nc(-c2nc(CCNC(=O)OC(C)(C)C)sc2Cl)sc1Cl	> 100 µM	> 100 µM	> 100 µM	> 100 µM	> 100 µM	> 100 µM	> 100 µM	> 100 µM	> 100 µM	> 100 µM	> 100 µM	> 100 µM	> 100 µM	> 100 µM			> 100 µM	> 100 µM	> 100 µM
Nc1cc(N2CCOCC2)nc(=O)n1-c1ccc(Cl)cc1	> 100 µM	> 100 µM	> 100 µM	> 100 µM	> 100 µM	> 100 µM	> 100 µM	> 100 µM		> 100 µM	> 100 µM			> 100 µM			> 100 µM	> 100 µM	> 100 µM
CN(/N=C\c1ccc2ccccc2c1)C1=NCCN1	56.5 µM	65 µM	45.2 µM	31.7 µM	> 100 µM	31.8 µM	40.9 µM	32.8 µM	23.9 µM	37.8 µM	41.6 µM	47.5 µM	29.7 µM	29.7 µM	73 µM	32 µM	99.6 µM		
